Assay results reported in US8623924B2, “Compositions and methods for modulating metabolic pathways” (Nusirt Sciences, Inc., priority 2011, dated 2014).
Entries after “also recorded” stand apart in the source; their conditions may differ.

Tests used:
[1] = system: adipocytes (3T3-L1) and myotubes (C2C12); assay: Fatty acid oxidation screening and dose-response, cell type both or not stated; type: cell-based; settings: for concentrations that exert no effect (dose-response curves; sub-therapeutic dose): highest dose that exerted no effect on fatty acid oxidation; for synergy with HMB or leucine in stimulating fatty acid oxidation: compound at its no-effect concentration with HMB 5 μM or leucine 0.5 mM; for independent activity in stimulating fatty acid oxidation (dose-response): compound alone
SIRT1 = target: T1, SIRT1 (Homo sapiens, UniProt Q96EB6); assay: SIRT1 activity, cell-free fluorimetric deacetylation assay; type: biochemical; settings: cell-free system
T1 construct: purchased ENZO Life Sciences International, Inc. BML-AK555
T1 sequence (Q96EB6 1-747): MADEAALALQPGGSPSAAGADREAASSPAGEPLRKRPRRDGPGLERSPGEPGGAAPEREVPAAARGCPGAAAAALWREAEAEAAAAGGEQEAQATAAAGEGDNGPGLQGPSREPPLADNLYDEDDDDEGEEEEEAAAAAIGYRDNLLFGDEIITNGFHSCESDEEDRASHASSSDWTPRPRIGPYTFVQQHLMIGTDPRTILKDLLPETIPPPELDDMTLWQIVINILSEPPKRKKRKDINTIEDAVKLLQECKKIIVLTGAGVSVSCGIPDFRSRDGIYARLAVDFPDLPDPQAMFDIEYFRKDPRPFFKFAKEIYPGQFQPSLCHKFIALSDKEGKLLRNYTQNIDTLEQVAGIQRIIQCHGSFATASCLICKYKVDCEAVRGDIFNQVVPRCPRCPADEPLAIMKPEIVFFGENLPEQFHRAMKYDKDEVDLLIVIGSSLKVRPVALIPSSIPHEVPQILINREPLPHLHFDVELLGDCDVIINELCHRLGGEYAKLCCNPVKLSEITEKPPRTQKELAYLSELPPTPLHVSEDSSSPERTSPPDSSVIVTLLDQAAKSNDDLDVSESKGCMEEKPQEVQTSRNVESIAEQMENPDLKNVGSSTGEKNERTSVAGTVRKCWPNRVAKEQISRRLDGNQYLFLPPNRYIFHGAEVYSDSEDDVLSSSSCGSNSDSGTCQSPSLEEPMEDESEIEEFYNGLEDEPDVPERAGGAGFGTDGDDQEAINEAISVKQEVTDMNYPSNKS
Protocol: SIRT1 activity was measured by using the SIRT1 Fluorimetric Drug Discovery Kit (BML-AK555, ENZO Life Sciences International, Inc. PA, USA). In this assay, SIRT1 activity is assessed by the degree of deacetylation of a standardized substrate containing an acetylated lysine side chain. The substrate utilized is a peptide containing amino acids 379-382 of human p53 (Arg-His-Lys-Lys[Ac]), an established target of SIRT1 activity; SIRT1 activity is directly proportional to the degree of deacetylation of Lys-382. Samples were incubated with peptide substrate (25 μM), and NAD^+ (500 μM) in a phosphate-buffered saline solution at 37° C. on a horizontal shaker for 45 minutes. The reaction was stopped with the addition of 2 mM nicotinamide and a developing solution that binds to the deacetylated lysine to form a fluorophore. Following 10 minutes incubation at 37° C., fluorescence was read in a plate-reading fluorometer at an excitation wavelength of 360 nm and an emission wavelength of 450 nm. […] A standard curve was constructed using deacetylated substrate (0-10 μM).

c2c12 myotubes [2] = assay: Fatty acid oxidation (FAO) in c2c12 myotubes, Example 1; type: cell-based; settings: preserved in presence and absence of 20 nM rapamycin
Protocol: We have shown that catabolic systems are also stimulated to fuel this process, resulting in increased mitochondrial biogenesis and fatty acid oxidation (FAO). To address the mechanism of this effect, we first determined its mTOR-dependence by assessing leucine stimulation of FAO in the presence and absence of 20 nM rapamycin; although rapamycin inhibited FAO in c2c12 myotubes, the degree of leucine stimulation was preserved (˜50%, p<0.03; FIG. 1).
(§1) We next investigated the role of intact leucine (0-0.5 mM) vs. its metabolites, α-ketoisocaproic acid (KIC) (0-0.5 mM) and HMB (0-50 μM). […] Both leucine and HMB increased myotube mitochondrial biogenesis (assessed fluorometrically via NAO binding) by ˜50%, (p<0.005, FIG. 3).

[3] = system: myotube mitochondrial biogenesis; assay: Myotube mitochondrial biogenesis (NAO binding), Example 1; type: cell-based; settings: assessed fluorometrically via NAO binding
Protocol: as §1

[4] = system: PGC-1α, NRF-1 and UCP3 genes; assay: Expression of mitochondrial regulatory and component genes; type: cell-based
Sirt3 = target: T2, Sirt3 (Mus musculus, UniProt Q8R104); assay: Sirt3 activity in mitochondrial protein of treated 3T3-L1 adipocytes; type: cell-based; settings: 4 hours, leucine 0.5 mM, HMB 5 uM, resveratrol 200 nM
T2 construct: endogenous in cells; host or cells: 3T3-L1 adipocytes (mitochondrial protein)
T2 sequence (Q8R104 1-334): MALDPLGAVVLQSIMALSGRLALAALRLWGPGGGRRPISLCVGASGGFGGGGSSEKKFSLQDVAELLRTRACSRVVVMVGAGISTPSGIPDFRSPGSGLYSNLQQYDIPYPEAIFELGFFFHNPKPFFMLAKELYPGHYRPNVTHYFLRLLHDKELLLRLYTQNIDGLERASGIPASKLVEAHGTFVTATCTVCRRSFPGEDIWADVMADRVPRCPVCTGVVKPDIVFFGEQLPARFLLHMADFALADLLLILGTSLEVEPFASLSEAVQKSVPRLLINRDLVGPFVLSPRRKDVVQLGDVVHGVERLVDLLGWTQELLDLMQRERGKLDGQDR

Adipocytes (3T3-L1) = assay: Fatty acid oxidation (3H-palmitate) in 3T3-L1 adipocytes; type: cell-based; settings: high (25 mM) glucose, 4 hours; leucine 0.5 mM, HMB 5 uM, resveratrol 200 nM; vs. control
Protocol: High glucose medium reduced fatty acid oxidation by 46% (p<0.05).
Fatty acid oxidation was measured using ^3H-labeled palmitate oxidation, with the ^3H label trapped as water as a result of the fat oxidation. The ^3H was then measured via scintillation counter.

[5] = Plasma insulin, glucose and HOMAIR in db/db mice; type: in vivo
[6] = Insulin tolerance test in db/db mice; type: in vivo
[7] = db/db mice
[8] = in vivo; cited from earlier work
c2c12 myotubes [9] = assay: Glucose utilization (extracellular acidification) in C2C12 myotubes; type: cell-based; settings: HMB 5 μM, leucine 0.5 mM, resveratrol 200 nM, other components at their no-effect concentration
Protocol: All compounds were tested for potential to independently or synergistically modulate sirtuin signaling either by direct stimulation or indirect via upstream signaling via AMPK. A key outcome of Sirt1 signaling is stimulation of PGC1-α and subsequent stimulation of mitochondrial biogenesis and fatty acid oxidation. Accordingly, fatty acid oxidation, measured as palmitate-induced oxygen consumption as described below, was utilized as a sensitive first level of screening for aerobic mitochondrial metabolism. A dose-response curve for fatty acid oxidation was established for each compound studied, and a “sub-therapeutic dose” was defined as the highest dose that exerted no effect in this system. […] Following assessment of fatty acid oxidation, Sirt1 activity, AMPK activity, mitochondrial biogenesis and glucose utilization (measured as glucose-induced extracellular acidification in the absence of fatty acids in the media) were assessed for lead combinations and appropriate controls. Glucose Utilization: In the absence of a fatty acid source and oxidative metabolism, glycolysis and subsequent lactate production results in extracellular acidification, which was also measured using a Seahorse Bioscience XF24 analyzer. […] Data for each sample were normalized to the pre-glucose injection baseline for that sample and expressed as % change from that baseline. […]

[10] = high dose metformin 300 mg/kg bw

## Cn1c(=O)c2[nH]cnc2n(C)c1=O [Theophylline, reference compound]
[1]
  concentrations that exert no effect (dose-response curves; sub-therapeutic dose): below 1 μM

## CC(C)[C@H](N)C(=O)O [valine, reference compound]
SIRT1
  SIRT1 activity: no significant effect

## CC(C)C[C@H](N)C(=O)O [leucine]
c2c12 myotubes [2]
  leucine stimulation of FAO: ~50%
[3]
  increase in myotube mitochondrial biogenesis: ~50%
[4]
  expression of mitochondrial regulatory (PGC-1α and NRF-1) and component (UCP3) genes: stimulated expression
SIRT1
  SIRT1 activity: significantly increased SIRT1 activity
Sirt3
  increase in Sirt3 activity: no significant independent effect; also recorded: no independent effects
Adipocytes (3T3-L1)
  increase in fatty acid oxidation, high glucose: 27%

## O[C@H]1[C@H](O)[C@@H](O)[C@H](O)[C@@H](O)[C@H]1O [Myo-inositol, reference compound]
[1]
  synergy with HMB or leucine in stimulating fatty acid oxidation: no synergy

## CN(C)C(=N)N=C(N)N [Metformin]
[5]; 2 weeks, high dose metformin 300 mg/kg bw (1.5 g/kg diet)
  reduction of plasma insulin: 27%
[5]; 2 weeks, high dose metformin 300 mg/kg bw, control 62
  plasma insulin: 45 uU/mL
[5]; [10]
  effect on plasma glucose: no significant effect
[5]; low dose of metformin (150 mg/kg) and very low dose (50 mg/kg)
  independent effects on any variable studied: no significant independent effects
[6]; insulin 0.75 U/kg, standard metformin dose, or low / very low metformin blends
  decrease in blood glucose over the 30 minute linear portion of the insulin response curve: ~60 mg/dL
[6]; low-dose or very low-dose of metformin alone
  changes in blood glucose in response to the insulin challenge: minimal changes
[7]; [10]
  effects on body composition: no significant effects
[7]; metformin at any dosage in the absence of HMB
  effect on visceral fat mass: not affected

## O=C(O)/C=C/c1ccc(O)c(O)c1 [Caffeic acid]
[1]
  concentrations that exert no effect (dose-response curves; sub-therapeutic dose): ≤ 1000 nM

## OC[C@@H](O)[C@@H](O)[C@H](O)[C@@H](O)CO [Sorbitol, reference compound]
[1]
  synergy with HMB or leucine in stimulating fatty acid oxidation: no synergy

## O=c1oc2c(O)c(O)cc3c(=O)oc4c(O)c(O)cc1c4c23 [Ellagic acid]
[1]
  independent activity in stimulating fatty acid oxidation (dose-response): little activity, even at high concentrations (50 μM)

## CC(C)CC(=O)C(=O)O [KIC, α-ketoisocaproic acid]
SIRT1
  SIRT1 activity: significantly increased SIRT1 activity

## Fucoxanthin
[1]
  concentrations that exert no effect (dose-response curves; sub-therapeutic dose): ≤ 100 nM

## Cn1c(=O)c2c(ncn2C)n(C)c1=O [Caffeine]
[8]
  plasma concentration observed following caffeine consumption: 1 to 10 µM

## O=C(O[C@@H]1Cc2c(O)cc(O)cc2O[C@@H]1c1cc(O)c(O)c(O)c1)c1cc(O)c(O)c(O)c1 [EGCG, epigallocatechin gallate]
[1]
  independent activity in stimulating fatty acid oxidation (dose-response): minimally active
  synergy with HMB or leucine in stimulating fatty acid oxidation: do not detect synergistic effects
c2c12 myotubes [9]
  increase in glucose utilization in myotubes (extracellular acidification response to glucose): no independent effect

## OC[C@@H](O)[C@@H](O[C@H]1O[C@H](CO)[C@@H](O)[C@H](O)[C@H]1O)[C@H](O)[C@@H](O)CO [Maltitol, reference compound]
[1]
  synergy with HMB or leucine in stimulating fatty acid oxidation: no synergy was noted
  concentrations that exert no effect (dose-response curves; sub-therapeutic dose): ≤ 100 nM
